# From US20240390349A1, “DOSING REGIMEN OF CAPSID INHIBITOR” (priority 2023, published 2024)
# “And” between values parts separate entries of the source, which are not always exact repeats. Equal values may be shown once. “Also recorded” adds a separate entry of the source.
# System: HIV-1
# Experiment: Efficacy of oral bridging (HIV-1 RNA, CD4), CALIBRATE
# Type: in vivo, human
# Excerpt: This Example describes results from a Phase 2 clinical study evaluating the safety and efficacy of LEN in combination with other antiretroviral (ARV) agents in ARV-naive people with HIV (PWH).
# This Example describes a Phase 2, randomized, open-label, active-controlled, multicenter study. Participants in Treatment Groups 1 and 2 required oral bridging following a clinical hold imposed by the Food & Drug Administration on injectable LEN as the SC injection of LEN could not be administered within the protocol visit window. An Oral Bridging visit was completed every 10 to 12 weeks. Participants had to have met all of the inclusion criteria and none of the exclusion criteria to be included in the study.
compound,measurement,setting,value
"CC(C)(C#Cc1ccc(-c2ccc(Cl)c3c(NS(C)(=O)=O)nn(CC(F)(F)F)c23)c([C@H](Cc2cc(F)cc(F)c2)NC(=O)Cn2nc(C(F)(F)F)c3c2C(F)(F)[C@@H]2C[C@H]32)n1)S(C)(=O)=O [LEN, N—((S)-1-(3-(4-chloro-3-(methylsulfonamido)-1-(2,2,2-trifluoroethyl)-1H-indazol-7-yl)-6-(3-methyl-3-(methylsulfonyl)but-1-yn-1-yl)pyridin-2-yl)-2-(3,5-difluorophenyl)ethyl)-2-((3bS,4aR)-5,5-difluoro-3-(trifluoromethyl)-3b,4,4a,5-tetrahydro-1H-cyclopropa [3,4]cyclopenta [1,2-c]pyrazol-1-yl) acetamide]",CD4 count and CD4% during oral bridging (in words),,generally stable or slightly increasing
same,Mean (SD) CD4 cell count at oral bridging baseline,LEN total group,762 (285.2) /μL
same,Mean CD4% at oral bridging baseline,LEN total group,34%
same,Proportion of participants with HIV-1 RNA<50 copies/mL,"LEN total group, OB baseline",99.2%
same,Proportion of participants with HIV-1 RNA<50 copies/mL,"Missing=Excluded, OB Week 10",77/77 (100) %
same,Proportion of participants with HIV-1 RNA<50 copies/mL,"Missing=Excluded, OB Week 20",58/58 (100) %
same,Proportion of participants with HIV-1 RNA<50 copies/mL,"Missing=Excluded, OB Week 30",5/5 (100) %
same,Proportion of participants with HIV-1 RNA<50 copies/mL,"Missing=Excluded, all subsequent oral bridging time points, all treatment groups",100%
same,Proportion of participants with HIV-1 RNA<50 copies/mL,"Missing=Failure, Week 10, LEN total",97.5%
same,Proportion of participants with HIV-1 RNA<50 copies/mL,"Missing=Failure, Week 10, SC LEN total group",97.5%
same,Proportion of participants with HIV-1 RNA<50 copies/mL,"Missing=Failure, Week 10, oral LEN group",97.4%
same,Proportion of participants with HIV-1 RNA<50 copies/mL,"Missing=Failure, Week 20, LEN total",100%
same,Proportion of participants with HIV-1 RNA<50 copies/mL,"Missing=Failure, Week 20, SC LEN total group",100%
same,Proportion of participants with HIV-1 RNA<50 copies/mL,"Missing=Failure, Week 20, oral LEN group",100%
same,Mean CD4% at oral bridging baseline,SC LEN total group,35%
same,Proportion of participants with HIV-1 RNA<50 copies/mL,"SC LEN total group (received OB), OB Baseline",100% and 82/82 (100) %
same,Mean change from oral bridging baseline in CD4%,"Week 10, LEN total group",1%
same,Mean change from oral bridging baseline in CD4 cell count,"Week 10, LEN total group",35 µL⁻¹
same,Mean change from oral bridging baseline in CD4%,"Week 10, SC LEN total group",0%
same,Mean change from oral bridging baseline in CD4 cell count,"Week 10, SC LEN total group",26 µL⁻¹
same,Mean change from oral bridging baseline in CD4%,"Week 10, oral LEN group",1%
same,Mean change from oral bridging baseline in CD4 cell count,"Week 10, oral LEN group",55 µL⁻¹
same,Mean change from oral bridging baseline in CD4%,"Week 20, LEN total group",0%
same,Mean change from oral bridging baseline in CD4 cell count,"Week 20, LEN total group",0 µL⁻¹
same,Mean change from oral bridging baseline in CD4%,"Week 20, SC LEN total group",0%
same,Mean change from oral bridging baseline in CD4 cell count,"Week 20, SC LEN total group",-31 µL⁻¹
same,Mean change from oral bridging baseline in CD4%,"Week 20, oral LEN group",1%
same,Mean change from oral bridging baseline in CD4 cell count,"Week 20, oral LEN group",106 µL⁻¹
same,Mean CD4% at oral bridging baseline,oral LEN group,33%
same,Proportion of participants with HIV-1 RNA<50 copies/mL,"oral LEN group, OB baseline",97.4%
same,Virologic suppression / virologic failure during oral bridging (in words),treatment-naive participants,remained virologically suppressed; also recorded: No treatment-naive participants from the study described in Example 4 experienced virologic failure
